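Cells were grown in 96-well plates and exposed to each compound for 48 hours at five concentrations; endpoints were interpolated linearly between bracketing concentrations, or set to the highest concentration if not reached. TGI denotes the concentration required for complete inhibition of growth.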
Assays:
Test in all cases: NCI anticancer screen, dose series, 48 h
A498 renal = system: A498 renal
A549 NSCLC = system: A549 NSCLC
ACHN renal = system: ACHN renal
BT-549 breast = system: BT-549 breast
CAKI-1 renal = system: CAKI-1 renal
CCRF-CEM leukemia = system: CCRF-CEM leukemia
COLO 205 colon = system: COLO 205 colon
DU-145 prostate = system: DU-145 prostate
EKVX NSCLC = system: EKVX NSCLC
HCC-2998 colon = system: HCC-2998 colon
HCT-15 colon = system: HCT-15 colon
HOP-62 NSCLC = system: HOP-62 NSCLC
HOP-92 NSCLC = system: HOP-92 NSCLC
HT29 colon = system: HT29 colon
IGROV1 ovarian = system: IGROV1 ovarian
K-562 leukemia = system: K-562 leukemia
KM12 colon = system: KM12 colon
LOX IMVI melanoma = system: LOX IMVI melanoma
M14 melanoma = system: M14 melanoma
MALME-3M melanoma = system: MALME-3M melanoma
MCF7 breast = system: MCF7 breast
MDA-MB-231 breast = system: MDA-MB-231 breast
MDA-MB-435 = system: MDA-MB-435
MDA-N = system: MDA-N
MOLT-4 leukemia = system: MOLT-4 leukemia
NCI-H226 lung = system: NCI-H226 lung
NCI-H23 lung = system: NCI-H23 lung
NCI-H460 lung = system: NCI-H460 lung
NCI-H522 lung = system: NCI-H522 lung
NCI/ADR-RES ovarian = system: NCI/ADR-RES ovarian
OVCAR-3 ovarian = system: OVCAR-3 ovarian
OVCAR-4 ovarian = system: OVCAR-4 ovarian
OVCAR-5 ovarian = system: OVCAR-5 ovarian
OVCAR-8 ovarian = system: OVCAR-8 ovarian
PC-3 prostate = system: PC-3 prostate
RXF 393 renal = system: RXF 393 renal
SF-268 CNS = system: SF-268 CNS
SF-295 CNS = system: SF-295 CNS
SF-539 CNS = system: SF-539 CNS
SK-MEL-2 melanoma = system: SK-MEL-2 melanoma
SK-MEL-28 melanoma = system: SK-MEL-28 melanoma
SK-MEL-5 melanoma = system: SK-MEL-5 melanoma
SK-OV-3 ovarian = system: SK-OV-3 ovarian
SN12C renal = system: SN12C renal
SNB-19 CNS = system: SNB-19 CNS
SNB-75 CNS = system: SNB-75 CNS
SR leukemia = system: SR leukemia
SW-620 colon = system: SW-620 colon
T-47D breast = system: T-47D breast
TK-10 renal = system: TK-10 renal
U251 CNS = system: U251 CNS
UACC-257 melanoma = system: UACC-257 melanoma
UACC-62 melanoma = system: UACC-62 melanoma
UO-31 renal = system: UO-31 renal
786-0 renal = system: 786-0 renal
HCT-116 colon = system: HCT-116 colon
HL-60(TB) leukemia = system: HL-60(TB) leukemia
RPMI-8226 leukemia = system: RPMI-8226 leukemia

c1ccc(C2=NN2c2ccccc2)cc1
TGI (A498 renal): > 100 µM
TGI (A549 NSCLC): > 100 µM
TGI (ACHN renal): > 100 µM
TGI (BT-549 breast): > 100 µM
TGI (CAKI-1 renal): > 100 µM
TGI (CCRF-CEM leukemia): > 100 µM
TGI (COLO 205 colon): > 100 µM
TGI (DU-145 prostate): > 100 µM
TGI (EKVX NSCLC): > 100 µM
TGI (HCC-2998 colon): > 100 µM
TGI (HCT-15 colon): > 100 µM
TGI (HOP-62 NSCLC): > 100 µM
TGI (HOP-92 NSCLC): > 100 µM
TGI (HT29 colon): > 100 µM
TGI (IGROV1 ovarian): > 100 µM
TGI (K-562 leukemia): > 100 µM
TGI (KM12 colon): > 100 µM
TGI (LOX IMVI melanoma): > 100 µM
TGI (M14 melanoma): > 100 µM
TGI (MALME-3M melanoma): > 100 µM
TGI (MCF7 breast): > 100 µM
TGI (MDA-MB-231 breast): > 100 µM
TGI (MDA-MB-435): > 100 µM
TGI (MDA-N): > 100 µM
TGI (MOLT-4 leukemia): > 100 µM
TGI (NCI-H226 lung): > 100 µM
TGI (NCI-H23 lung): > 100 µM
TGI (NCI-H460 lung): > 100 µM
TGI (NCI-H522 lung): > 100 µM
TGI (NCI/ADR-RES ovarian): > 100 µM
TGI (OVCAR-3 ovarian): > 100 µM
TGI (OVCAR-4 ovarian): > 100 µM
TGI (OVCAR-5 ovarian): > 100 µM
TGI (OVCAR-8 ovarian): > 100 µM
TGI (PC-3 prostate): > 100 µM
TGI (RXF 393 renal): > 100 µM
TGI (SF-268 CNS): > 100 µM
TGI (SF-295 CNS): > 100 µM
TGI (SF-539 CNS): > 100 µM
TGI (SK-MEL-2 melanoma): > 100 µM
TGI (SK-MEL-28 melanoma): > 100 µM
TGI (SK-MEL-5 melanoma): > 100 µM
TGI (SK-OV-3 ovarian): > 100 µM
TGI (SN12C renal): > 100 µM
TGI (SNB-19 CNS): > 100 µM
TGI (SNB-75 CNS): > 100 µM
TGI (SR leukemia): > 100 µM
TGI (SW-620 colon): > 100 µM
TGI (T-47D breast): > 100 µM
TGI (TK-10 renal): > 100 µM
TGI (U251 CNS): > 100 µM
TGI (UACC-257 melanoma): > 100 µM
TGI (UACC-62 melanoma): > 100 µM
TGI (UO-31 renal): > 100 µM

CN(C)c1ccc(C=Nc2ccc(-c3nc4ccccc4s3)cc2)cc1
TGI (786-0 renal): 42.8 µM
TGI (A498 renal): 37.1 µM
TGI (A549 NSCLC): > 100 µM
TGI (ACHN renal): 69 µM
TGI (BT-549 breast): > 100 µM
TGI (CAKI-1 renal): > 100 µM
TGI (CCRF-CEM leukemia): 10.9 µM
TGI (COLO 205 colon): 62.3 µM
TGI (DU-145 prostate): > 100 µM
TGI (EKVX NSCLC): > 100 µM
TGI (HCC-2998 colon): 44.5 µM
TGI (HCT-116 colon): > 100 µM
TGI (HCT-15 colon): > 100 µM
TGI (HL-60(TB) leukemia): 0.525 µM
TGI (HOP-62 NSCLC): 82.8 µM
TGI (HOP-92 NSCLC): 59.4 µM
TGI (HT29 colon): > 100 µM
TGI (IGROV1 ovarian): > 100 µM
TGI (K-562 leukemia): > 100 µM
TGI (KM12 colon): > 100 µM
TGI (LOX IMVI melanoma): 94.8 µM
TGI (M14 melanoma): > 100 µM
TGI (MALME-3M melanoma): 95.7 µM
TGI (MCF7 breast): 76.5 µM
TGI (MDA-MB-435): > 100 µM
TGI (MDA-N): > 100 µM
TGI (MOLT-4 leukemia): > 100 µM
TGI (NCI-H226 lung): > 100 µM
TGI (NCI-H23 lung): 97.6 µM
TGI (NCI-H460 lung): 93.2 µM
TGI (NCI-H522 lung): 51.2 µM
TGI (NCI/ADR-RES ovarian): 92 µM
TGI (OVCAR-3 ovarian): 57.6 µM
TGI (OVCAR-4 ovarian): > 100 µM
TGI (OVCAR-5 ovarian): > 100 µM
TGI (OVCAR-8 ovarian): > 100 µM
TGI (PC-3 prostate): 71.5 µM
TGI (RPMI-8226 leukemia): > 100 µM
TGI (RXF 393 renal): 52.2 µM
TGI (SF-295 CNS): 29.9 µM
TGI (SF-539 CNS): > 100 µM
TGI (SK-MEL-2 melanoma): 58.9 µM
TGI (SK-MEL-28 melanoma): > 100 µM
TGI (SK-MEL-5 melanoma): 44.8 µM
TGI (SK-OV-3 ovarian): > 100 µM
TGI (SN12C renal): > 100 µM
TGI (SNB-19 CNS): > 100 µM
TGI (SNB-75 CNS): 80.9 µM
TGI (SR leukemia): > 100 µM
TGI (SW-620 colon): > 100 µM
TGI (T-47D breast): 73.9 µM
TGI (TK-10 renal): 75.8 µM
TGI (U251 CNS): > 100 µM
TGI (UACC-257 melanoma): 82.8 µM
TGI (UACC-62 melanoma): 31.7 µM
TGI (UO-31 renal): > 100 µM
